{"source": "patent US10538487B2", "about": "“Sulfonylureas and related compounds and use of same” (priority 2015, dated 2020)", "assay": "Single dose pharmacokinetic study in mice (iv 4 mg/Kg, po 20 mg/Kg), plasma concentration post-dosing", "type": "in vivo, mouse", "details": "mouse", "procedure": "This is advantageous leading to comparatively lower doses or less frequent administration. The procedure followed was: Male C57BL/6 mice were used at 7-9 weeks age with 3 animals per group. Mice were dosed with test compound using single intravenous bolus or oral gavage. Blood samples were taken via submandibular or saphenous vein for analysis of plasma concentrations of compound by LC-MS/MS at the following timepoints: IV (3 mice): 0.083, 0.25, 0.5, 1, 2, 4, 8 and 24 hours post dosing, PO (3 mice): 0.25, 0.5, 1, 2, 4, 8 and 24 hours post dosing. LC-MS/MS method for the quantitative determination of test compound in corresponding biological matrix was developed. […] The results are shown graphically in FIGS. 1A to 1C (MCC950) and FIGS. 2A to 2C (MCC7840).", "key": {"[1]": {"details": "IV 4 mg/Kg, individual mice M1-M3, 4 mg/kg"}, "[2]": {"details": "PO 20 mg/Kg, individual mice M4-M6, 20 mg/kg"}}, "note": "“And” between values parts separate entries of the source, which are not always exact repeats. Equal entries are not always repeated."}
{"smiles": "CC(C)n1ccc(S(=O)(=O)NC(=O)Nc2c3c(cc4c2CCC4)CCC3)n1", "note": "[MCC_007840_002]", "values": [{"measurement": "MRT last", "setting": "male, C57BL/6, mouse, plasma, po, 20 mg/kg, PO 20 mg/Kg, mean of 3 mice, read-out: MRT0-last, Mean PO", "value": 6.43, "unit": "h"}, {"measurement": "half-life", "setting": "male, C57BL/6, mouse, plasma, po, 20 mg/kg, PO 20 mg/Kg, mean of 3 mice, read-out: T1/2, Mean PO (converted)", "value": 5.02, "unit": "h"}, {"measurement": "Tmax", "setting": "male, C57BL/6, mouse, plasma, po, 20 mg/kg, PO 20 mg/Kg, mean of 3 mice, read-out: Tmax, Mean PO", "value": 0.25, "unit": "h"}, {"measurement": "bioavailability", "setting": "male, C57BL/6, plasma, PO 20 mg/Kg vs IV 4 mg/Kg, Mean PO, read-out: Bioavailability", "value": 67.2, "unit": "%"}, {"measurement": "Plasma concentration, IV Time 5 min", "setting": "IV 4 mg/Kg, 5 min post dosing, individual mice M1-M3, 4 mg/kg", "value": "41900 ng/mL and 38600 ng/mL"}, {"measurement": "Plasma concentration, IV Time 0.250 h", "setting": "IV 4 mg/Kg, 0.250 h post dosing, individual mice M1-M3, 4 mg/kg", "value": 29300, "unit": "ng/mL"}, {"measurement": "Plasma concentration, IV Time 0.500 h", "setting": "IV 4 mg/Kg, 0.500 h post dosing, individual mice M1-M3, 4 mg/kg", "value": "25200 ng/mL and 24500 ng/mL"}, {"measurement": "Plasma concentration, IV Time 1.00 h", "setting": "IV 4 mg/Kg, 1.00 h post dosing, individual mice M1-M3, 4 mg/kg", "value": "18900 ng/mL and 17200 ng/mL"}, {"measurement": "Plasma concentration, IV Time 2.00 h", "setting": "IV 4 mg/Kg, 2.00 h post dosing, individual mice M1-M3, 4 mg/kg", "value": "14700 ng/mL and 19900 ng/mL"}, {"measurement": "Plasma concentration, IV Time 4.00 h", "setting": "IV 4 mg/Kg, 4.00 h post dosing, individual mice M1-M3, 4 mg/kg", "value": "8550 ng/mL and 8590 ng/mL"}, {"measurement": "Plasma concentration, IV Time 8.00 h", "setting": "IV 4 mg/Kg, 8.00 h post dosing, individual mice M1-M3, 4 mg/kg", "value": "3360 ng/mL and 4440 ng/mL"}, {"measurement": "Plasma concentration, IV Time 24.0 h", "setting": "IV 4 mg/Kg, 24.0 h post dosing, individual mice M1-M3, 4 mg/kg", "value": "122 ng/mL and 130 ng/mL"}, {"measurement": "Tlast", "setting": "IV 4 mg/Kg, individual mice M1-M3", "value": 24.0, "unit": "h"}, {"measurement": "AUC0-inf", "setting": "[1]", "value": "105.283 µg·h/mL and 116.833 µg·h/mL"}, {"measurement": "AUC0-last", "setting": "[1]", "value": "104.705 µg·h/mL and 116.222 µg·h/mL"}, {"measurement": "AUCExtra", "setting": "[1]", "value": "0.770% and 0.549% and 0.523%"}, {"measurement": "AUMCExtra", "setting": "[1]", "value": "5.23% and 3.81% and 3.41%"}, {"measurement": "C0", "setting": "[1]", "value": "50100 ng/mL and 44301 ng/mL"}, {"measurement": "Cl", "setting": "[1]", "value": "0.633 mL/min/kg and 0.571 mL/min/kg"}, {"measurement": "MRT0-inf", "setting": "[1]", "value": "4.15 h and 4.40 h"}, {"measurement": "MRT0-last", "setting": "[1]", "value": "4.01 h and 4.28 h"}, {"measurement": "T1/2", "setting": "[1]", "value": "3.29 h and 3.26 h"}, {"measurement": "Vdss", "setting": "[1]", "value": "0.158 L/kg and 0.151 L/kg"}, {"measurement": "AUCExtra, Mean IV", "setting": "IV 4 mg/Kg, mean of 3 mice", "value": 0.614, "unit": "%"}, {"measurement": "AUMCExtra, Mean IV", "setting": "IV 4 mg/Kg, mean of 3 mice", "value": 4.15, "unit": "%"}, {"measurement": "C0, Mean IV", "setting": "IV 4 mg/Kg, mean of 3 mice", "value": 52245, "unit": "ng/mL"}, {"measurement": "Tlast, Mean IV", "setting": "IV 4 mg/Kg, mean of 3 mice", "value": 24.0, "unit": "h"}, {"measurement": "Plasma concentration, PO Time 0.250 h", "setting": "PO 20 mg/Kg, 0.250 h post dosing, individual mice M4-M6, 20 mg/kg", "value": "84300 ng/mL and 27400 ng/mL and 69700 ng/mL"}, {"measurement": "Plasma concentration, PO Time 0.500 h", "setting": "PO 20 mg/Kg, 0.500 h post dosing, individual mice M4-M6, 20 mg/kg", "value": "70300 ng/mL and 24000 ng/mL and 56600 ng/mL"}, {"measurement": "Plasma concentration, PO Time 1.00 h", "setting": "PO 20 mg/Kg, 1.00 h post dosing, individual mice M4-M6, 20 mg/kg", "value": "60400 ng/mL and 20900 ng/mL and 45700 ng/mL"}, {"measurement": "Plasma concentration, PO Time 2.00 h", "setting": "PO 20 mg/Kg, 2.00 h post dosing, individual mice M4-M6, 20 mg/kg", "value": "54900 ng/mL and 19100 ng/mL and 53800 ng/mL"}, {"measurement": "Plasma concentration, PO Time 4.00 h", "setting": "PO 20 mg/Kg, 4.00 h post dosing, individual mice M4-M6, 20 mg/kg", "value": "32900 ng/mL and 14100 ng/mL and 32800 ng/mL"}, {"measurement": "Plasma concentration, PO Time 8.00 h", "setting": "PO 20 mg/Kg, 8.00 h post dosing, individual mice M4-M6, 20 mg/kg", "value": "14100 ng/mL and 12800 ng/mL and 29900 ng/mL"}, {"measurement": "Plasma concentration, PO Time 24.0 h", "setting": "PO 20 mg/Kg, 24.0 h post dosing, individual mice M4-M6, 20 mg/kg", "value": "660 ng/mL and 2370 ng/mL and 1370 ng/mL"}, {"measurement": "Tlast", "setting": "PO 20 mg/Kg, individual mice M4-M6", "value": 24.0, "unit": "h"}, {"measurement": "AUC0-inf", "setting": "[2]", "value": "251.697 µg·h/mL and 466.063 µg·h/mL"}, {"measurement": "AUC0-last", "setting": "[2]", "value": "364.947 µg·h/mL and 226.687 µg·h/mL and 457.808 µg·h/mL"}, {"measurement": "AUCExtra", "setting": "[2]", "value": "0.922% and 9.94% and 1.77%"}, {"measurement": "AUMCExtra", "setting": "[2]", "value": "5.35% and 32.1% and 7.78%"}, {"measurement": "Cmax", "setting": "[2]", "value": "84300 ng/mL and 27400 ng/mL and 69700 ng/mL"}, {"measurement": "MRT0-last", "setting": "[2]", "value": "8.07 h and 6.41 h"}, {"measurement": "T1/2", "setting": "[2]", "value": "3.57 h and 7.31 h and 4.18 h"}, {"measurement": "AUCExtra, Mean PO", "setting": "PO 20 mg/Kg, mean of 3 mice", "value": 4.21, "unit": "%"}, {"measurement": "AUMCExtra, Mean PO", "setting": "PO 20 mg/Kg, mean of 3 mice", "value": 15.1, "unit": "%"}, {"measurement": "Tlast, Mean PO", "setting": "PO 20 mg/Kg, mean of 3 mice", "value": 24.0, "unit": "h"}]}
